Assay results as given in paper PMC8330742, “New benzothieno[2,3-c]pyridines as non-steroidal CYP17 inhibitors: design, synthesis, anticancer screening, apoptosis induction, and in silico ADME profile studies” (Journal of Enzyme Inhibition and Medicinal Chemistry, 2021).

How the values were obtained:
HCT-15 = assay: NCI-60 SRB screen; type: cell-based, human; conditions: Homo sapiens; HCT-15; single dose 10^−5 M; read-out: Growth inhibition (%)
NCI-H226 = assay: NCI-60 SRB screen; type: cell-based, human; conditions: Homo sapiens; NCI-H226; single dose 10^−5 M; read-out: Growth inhibition (%)
SN12C = assay: NCI-60 SRB screen; type: cell-based, human; conditions: Homo sapiens, SN12C; SN 12 C; single dose 10^−5 M; read-out: Growth inhibition (%)
SR = assay: NCI-60 SRB screen; type: cell-based; conditions: Homo sapiens, single dose 10^−5 M, read-out: Growth inhibition (%)
HCC-2998 = assay: NCI-60 SRB screen; type: cell-based, human; conditions: Homo sapiens; HCC-2998; single dose 10^−5 M; read-out: Growth inhibition (%)
ACHN = assay: NCI-60 SRB screen; type: cell-based; conditions: Homo sapiens, single dose 10^−5 M, read-out: Growth inhibition (%)
CAKI-1 = assay: NCI-60 SRB screen; type: cell-based, human; conditions: Homo sapiens; CAKI-1; single dose 10^−5 M; read-out: Growth inhibition (%)
IGROV1 = assay: NCI-60 SRB screen; type: cell-based, human; conditions: Homo sapiens, IGROV-1; IGROV1; single dose 10^−5 M; read-out: Growth inhibition (%)
HL-60(TB) = assay: NCI-60 SRB screen; type: cell-based, human; conditions: Homo sapiens; HL-60 (TB); single dose 10^−5 M; read-out: Growth inhibition (%)
NCI-H460 = assay: NCI-60 SRB screen; type: cell-based, human; conditions: Homo sapiens; NCI-H460; single dose 10^−5 M; read-out: Growth inhibition (%)
SK-MEL-2 = assay: NCI-60 SRB screen; type: cell-based, human; conditions: Homo sapiens; SK-MEL-2; single dose 10^−5 M; read-out: Growth inhibition (%)
NCI-H322M = assay: NCI-60 SRB screen; type: cell-based, human; conditions: Homo sapiens, single dose 10^−5 M, read-out: Growth inhibition (%)
MDA-MB-435 = assay: NCI-60 SRB screen; type: cell-based; conditions: Homo sapiens, MDA-MB-435, read-out: Growth inhibition (%)
SF-295 = assay: NCI-60 SRB screen; type: cell-based, human; conditions: Homo sapiens; SF-295; single dose 10^−5 M; read-out: Growth inhibition (%)
[1] = test system: panel of 60 cancer cell lines; assay: NCI-60 SRB screen, mean or range over the panel; type: cell-based, human; conditions: Homo sapiens; mean over the cell lines; single dose 10^−5 M; read-out: Mean growth inhibition (%)
A549/ATCC = assay: NCI-60 SRB screen; type: cell-based, human; conditions: Homo sapiens, single dose 10^−5 M, read-out: Growth inhibition (%)
NCI-H23 = assay: NCI-60 SRB screen; type: cell-based, human; conditions: Homo sapiens; NCI-H23; single dose 10^−5 M; read-out: Growth inhibition (%)
OVCAR-8 = assay: NCI-60 SRB screen; type: cell-based, human; conditions: Homo sapiens; OVCAR-8; single dose 10^−5 M; read-out: Growth inhibition (%)
UACC-257 = assay: NCI-60 SRB screen; type: cell-based, human; conditions: Homo sapiens, UACC-257; UACC-275 (so in the source); single dose 10^−5 M; read-out: Growth inhibition (%)
OVCAR-3 = assay: NCI-60 SRB screen; type: cell-based, human; conditions: Homo sapiens; OVCAR-3; single dose 10^−5 M; read-out: Growth inhibition (%)
HOP-92 = assay: NCI-60 SRB screen; type: cell-based, human; conditions: Homo sapiens; HOP-92; single dose 10^−5 M; read-out: Growth inhibition (%)
HCT-116 = assay: NCI-60 SRB screen; type: cell-based, human; conditions: Homo sapiens; HCT-116; single dose 10^−5 M; read-out: Growth inhibition (%)
NCI/ADR-RES = assay: NCI-60 SRB screen; type: cell-based, human; conditions: Homo sapiens, single dose 10^−5 M, read-out: Growth inhibition (%)
M14 = assay: NCI-60 SRB screen; type: cell-based, human; conditions: Homo sapiens; M14; single dose 10^−5 M; read-out: Growth inhibition (%)
OVCAR-4 = assay: NCI-60 SRB screen; type: cell-based, human; conditions: Homo sapiens; OVCAR-4; single dose 10^−5 M; read-out: Growth inhibition (%)
UO-31 = assay: NCI-60 SRB screen; type: cell-based, human; conditions: Homo sapiens; UO-31; single dose 10^−5 M; read-out: Growth inhibition (%)
SK-OV-3 = assay: NCI-60 SRB screen; type: cell-based, human; conditions: Homo sapiens; SK-OV-3; single dose 10^−5 M; read-out: Growth inhibition (%)
SK-MEL-28 = assay: NCI-60 SRB screen; type: cell-based; conditions: Homo sapiens; SK-MEL-28; single dose 10^−5 M; read-out: Growth inhibition (%)
NCI-H522 = assay: NCI-60 SRB screen; type: cell-based, human; conditions: Homo sapiens; NCI-H522; single dose 10^−5 M; read-out: Growth inhibition (%)
786-0 = assay: NCI-60 SRB screen; type: cell-based; conditions: Homo sapiens; 786-0; single dose 10^−5 M; read-out: Growth inhibition (%)
COLO 205 = assay: NCI-60 SRB screen; type: cell-based, human; conditions: Homo sapiens; COLO 205; single dose 10^−5 M; read-out: Growth inhibition (%)
MOLT-4 = assay: NCI-60 SRB screen; type: cell-based; conditions: Homo sapiens; MOLT-4; single dose 10^−5 M; read-out: Growth inhibition (%)
UACC-62 = assay: NCI-60 SRB screen; type: cell-based, human; conditions: Homo sapiens; UACC-62; single dose 10^−5 M; read-out: Growth inhibition (%)
MALME-3M = assay: NCI-60 SRB screen; type: cell-based, human; conditions: Homo sapiens, single dose 10^−5 M, read-out: Growth inhibition (%)
KM12 = assay: NCI-60 SRB screen; type: cell-based, human; conditions: Homo sapiens; KM12; single dose 10^−5 M; read-out: Growth inhibition (%)
HT-29 = assay: NCI-60 SRB screen; type: cell-based; conditions: Homo sapiens; HT-29; single dose 10^−5 M; read-out: Growth inhibition (%)
TK-10 = assay: NCI-60 SRB screen; type: cell-based, human; conditions: Homo sapiens; TK-10; single dose 10^−5 M; read-out: Growth inhibition (%)
EKVX = assay: NCI-60 SRB screen; type: cell-based, human; conditions: Homo sapiens, single dose 10^−5 M, read-out: Growth inhibition (%)
K-562 = assay: NCI-60 SRB screen; type: cell-based, human; conditions: Homo sapiens, K562; K-562; single dose 10^−5 M; read-out: Growth inhibition (%)
HOP-62 = assay: NCI-60 SRB screen; type: cell-based, human; conditions: Homo sapiens; HOP-62; single dose 10^−5 M; read-out: Growth inhibition (%)
SF-268 = assay: NCI-60 SRB screen; type: cell-based, human; conditions: Homo sapiens; SF-268; single dose 10^−5 M; read-out: Growth inhibition (%)
LOX IMVI = assay: NCI-60 SRB screen; type: cell-based, human; conditions: Homo sapiens, single dose 10^−5 M, read-out: Growth inhibition (%)
CCRF-CEM = assay: NCI-60 SRB screen; type: cell-based; conditions: Homo sapiens, single dose 10^−5 M, read-out: Growth inhibition (%)
SW-620 = assay: NCI-60 SRB screen; type: cell-based; conditions: Homo sapiens; SW-620; single dose 10^−5 M; read-out: Growth inhibition (%)
SK-MEL-5 = assay: NCI-60 SRB screen; type: cell-based, human; conditions: Homo sapiens; SK-MEL-5; single dose 10^−5 M; read-out: Growth inhibition (%)

## CCN1CCN(C2C(=O)NC(c3cccc([N+](=O)[O-])c3)c3sc4c(F)cccc4c32)CC1 (stereo not drawn) [Compound 6a, 4-(4-Ethylpiperazin-1-yl)-8-fluoro-1-(3-nitrophenyl)-1,2-dihydro[1]benzo thieno[2,3-c]pyridin-3(4H)-one]
HCT-15
  inhibition at 10 µM: -7.17%
NCI-H226
  inhibition at 10 µM: 10%
SN12C
  inhibition at 10 µM: 2.15%
SR
  inhibition at 10 µM: 8.6%
HCC-2998
  inhibition at 10 µM: -18.1%
ACHN
  inhibition at 10 µM: 6.81%
CAKI-1
  inhibition at 10 µM: 18.4%
IGROV1
  inhibition at 10 µM: 16.4%
HL-60(TB)
  inhibition at 10 µM: -2%
NCI-H460
  inhibition at 10 µM: 0.82%
SK-MEL-2
  inhibition at 10 µM: -13.3%
NCI-H322M
  inhibition at 10 µM: 0.49%
MDA-MB-435
  inhibition at 10 µM: -2.64%
SF-295
  inhibition at 10 µM: -3.39%
[1]
  inhibition at 10 µM: -0.71%
A549/ATCC
  inhibition at 10 µM: -7.34%
NCI-H23
  inhibition at 10 µM: -1.88%
OVCAR-8
  inhibition at 10 µM: 2.02%
UACC-257
  inhibition at 10 µM: -14.7%
OVCAR-3
  inhibition at 10 µM: 0.35%
HOP-92
  inhibition at 10 µM: -1.02%
HCT-116
  inhibition at 10 µM: 6.68%
NCI/ADR-RES
  inhibition at 10 µM: -2.46%
M14
  inhibition at 10 µM: -1.65%
OVCAR-4
  inhibition at 10 µM: -6.65%
UO-31
  inhibition at 10 µM: 35.8%
SK-OV-3
  inhibition at 10 µM: -1.47%
SK-MEL-28
  inhibition at 10 µM: -13%
NCI-H522
  inhibition at 10 µM: 0.67%
786-0
  inhibition at 10 µM: -15%
COLO 205
  inhibition at 10 µM: -13.8%
MOLT-4
  inhibition at 10 µM: 9.9%
UACC-62
  inhibition at 10 µM: 8.9%
MALME-3M
  inhibition at 10 µM: -3.44%
KM12
  inhibition at 10 µM: -0.94%
HT-29
  inhibition at 10 µM: -2.32%
TK-10
  inhibition at 10 µM: -51.9%
EKVX
  inhibition at 10 µM: -2.24%
K-562
  inhibition at 10 µM: 11%
HOP-62
  inhibition at 10 µM: 8.57%
SF-268
  inhibition at 10 µM: 7.67%
LOX IMVI
  inhibition at 10 µM: -2.53%
CCRF-CEM
  inhibition at 10 µM: -2.46%
SW-620
  inhibition at 10 µM: 5.15%
SK-MEL-5
  inhibition at 10 µM: -1.71%
